Experiments:
[1] = test system: SW620 MTHFD2 -/-; experiment: EC50 for viability (resazurin, 96 h); conditions: RPMI+GlutaMAX (5% dFBS, 1% P/S)
[2] = test system: SW620 MTHFD2-/-; experiment: EC50 for viability (resazurin, 96 h); conditions: RPMI+GlutaMAX (5% dFBS, 1% P/S); metabolite supplement: Hypoxanthine + Formate
[3] = test system: SW620 WT; experiment: EC50 for viability (resazurin, 96 h); conditions: RPMI+GlutaMAX (5% dFBS, 1% P/S)
[4] = test system: SW620; experiment: EC50 for viability (resazurin, 96 h)
[5] = test system: SW620 MTHFD2-/-; experiment: cell viability relative to vehicle (resazurin, 96 h); higher = more viable; conditions: base medium: RPMI + dialysed FBS
Description: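 SW620 WT or MTHFD2-/- cells were treated for 96 h with a compound dilution series (log10 M) in RPMI with normal or dialysed FBS. Viability was read by resazurin and is given as % of vehicle.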

Cc1c(N2CCN(C)[C@@H](C)C2)ccc2c3c(c(=O)oc12)CN(C(=O)c1ccc(NS(C)(=O)=O)c(OC(F)(F)F)c1)CC3
Conditions	EC50 for viability	cell viability [%]
[1], metabolite supplement: Sodium Formate	> 10000 nM	–
[1], metabolite supplement: Thymidine	86.3 nM	–
[1], metabolite supplement: Thymidine + Sodium Formate	0.383 nM	–
[1], metabolite supplement: Vehicle	178 nM	–
[3], metabolite supplement: Adenine	> 10 µM	–
[3], metabolite supplement: Adenosine	> 10 µM	–
[3], metabolite supplement: Guanosine	2.97 µM	–
[3], metabolite supplement: Hypoxanthine	> 10 µM	–
[3], metabolite supplement: Thymidine	1.07 µM	–
[3], metabolite supplement: Vehicle	0.889 µM	–
[5], log10 compound concentration (M): -5, supplement / serum: 50μM Hypoxanthine	–	95.4
[5], log10 compound concentration (M): -5, supplement / serum: 50μM Thymidine + 50μM Hypoxanthine	–	108
[5], log10 compound concentration (M): -5, supplement / serum: 50μMThymidine	–	13.3
[5], log10 compound concentration (M): -5, supplement / serum: Hypoxanthine	–	85.7
[5], log10 compound concentration (M): -5, supplement / serum: Hypoxanthine+Sodium Formate	–	51.9
[5], log10 compound concentration (M): -5, supplement / serum: No metabolite	–	15.4
[5], log10 compound concentration (M): -5, supplement / serum: Sodium Formate	–	87.3
[5], log10 compound concentration (M): -5, supplement / serum: Vehicle	–	11.5
[5], log10 compound concentration (M): -5.47712, supplement / serum: 50μM Hypoxanthine	–	77.9
[5], log10 compound concentration (M): -5.47712, supplement / serum: 50μM Thymidine + 50μM Hypoxanthine	–	98
[5], log10 compound concentration (M): -5.47712, supplement / serum: 50μMThymidine	–	14.1
[5], log10 compound concentration (M): -5.47712, supplement / serum: Hypoxanthine	–	94.2
[5], log10 compound concentration (M): -5.47712, supplement / serum: Hypoxanthine+Sodium Formate	–	90.1
[5], log10 compound concentration (M): -5.47712, supplement / serum: No metabolite	–	14.8
[5], log10 compound concentration (M): -5.47712, supplement / serum: Sodium Formate	–	95.7
[5], log10 compound concentration (M): -5.47712, supplement / serum: Vehicle	–	13.5
[5], log10 compound concentration (M): -5.95424, supplement / serum: 50μM Hypoxanthine	–	99.7
[5], log10 compound concentration (M): -5.95424, supplement / serum: 50μM Thymidine + 50μM Hypoxanthine	–	111
[5], log10 compound concentration (M): -5.95424, supplement / serum: 50μMThymidine	–	20.9
[5], log10 compound concentration (M): -5.95424, supplement / serum: Hypoxanthine	–	101
[5], log10 compound concentration (M): -5.95424, supplement / serum: Hypoxanthine+Sodium Formate	–	99
[5], log10 compound concentration (M): -5.95424, supplement / serum: No metabolite	–	20.5
[5], log10 compound concentration (M): -5.95424, supplement / serum: Sodium Formate	–	97.1
[5], log10 compound concentration (M): -5.95424, supplement / serum: Vehicle	–	20.3
[5], log10 compound concentration (M): -6.43136, supplement / serum: 50μM Hypoxanthine	–	109
[5], log10 compound concentration (M): -6.43136, supplement / serum: 50μM Thymidine + 50μM Hypoxanthine	–	114
[5], log10 compound concentration (M): -6.43136, supplement / serum: 50μMThymidine	–	41.5
[5], log10 compound concentration (M): -6.43136, supplement / serum: Hypoxanthine	–	98
[5], log10 compound concentration (M): -6.43136, supplement / serum: Hypoxanthine+Sodium Formate	–	104
[5], log10 compound concentration (M): -6.43136, supplement / serum: No metabolite	–	43.5
[5], log10 compound concentration (M): -6.43136, supplement / serum: Sodium Formate	–	98.9
[5], log10 compound concentration (M): -6.43136, supplement / serum: Vehicle	–	44.8
[5], log10 compound concentration (M): -6.90849, supplement / serum: 50μM Hypoxanthine	–	99.4
[5], log10 compound concentration (M): -6.90849, supplement / serum: 50μM Thymidine + 50μM Hypoxanthine	–	101
[5], log10 compound concentration (M): -6.90849, supplement / serum: 50μMThymidine	–	59.6
[5], log10 compound concentration (M): -6.90849, supplement / serum: Hypoxanthine	–	99.5
[5], log10 compound concentration (M): -6.90849, supplement / serum: Hypoxanthine+Sodium Formate	–	98.9
[5], log10 compound concentration (M): -6.90849, supplement / serum: No metabolite	–	56.7
[5], log10 compound concentration (M): -6.90849, supplement / serum: Sodium Formate	–	100
[5], log10 compound concentration (M): -6.90849, supplement / serum: Vehicle	–	74.4
[5], log10 compound concentration (M): -7.38561, supplement / serum: 50μM Hypoxanthine	–	67.2
[5], log10 compound concentration (M): -7.38561, supplement / serum: 50μM Thymidine + 50μM Hypoxanthine	–	110
[5], log10 compound concentration (M): -7.38561, supplement / serum: 50μMThymidine	–	61.2
[5], log10 compound concentration (M): -7.38561, supplement / serum: Hypoxanthine	–	85.2
[5], log10 compound concentration (M): -7.38561, supplement / serum: Hypoxanthine+Sodium Formate	–	83
[5], log10 compound concentration (M): -7.38561, supplement / serum: No metabolite	–	50
[5], log10 compound concentration (M): -7.38561, supplement / serum: Sodium Formate	–	76.9
[5], log10 compound concentration (M): -7.38561, supplement / serum: Vehicle	–	56.4
[5], log10 compound concentration (M): -7.86273, supplement / serum: 50μM Hypoxanthine	–	104
[5], log10 compound concentration (M): -7.86273, supplement / serum: 50μM Thymidine + 50μM Hypoxanthine	–	105
[5], log10 compound concentration (M): -7.86273, supplement / serum: 50μMThymidine	–	67.2
[5], log10 compound concentration (M): -7.86273, supplement / serum: Hypoxanthine	–	88.9
[5], log10 compound concentration (M): -7.86273, supplement / serum: Hypoxanthine+Sodium Formate	–	94.5
[5], log10 compound concentration (M): -7.86273, supplement / serum: No metabolite	–	72.2
[5], log10 compound concentration (M): -7.86273, supplement / serum: Sodium Formate	–	94.4
[5], log10 compound concentration (M): -7.86273, supplement / serum: Vehicle	–	80.2
[5], log10 compound concentration (M): -8.33985, supplement / serum: 50μM Hypoxanthine	–	104
[5], log10 compound concentration (M): -8.33985, supplement / serum: 50μM Thymidine + 50μM Hypoxanthine	–	95
[5], log10 compound concentration (M): -8.33985, supplement / serum: 50μMThymidine	–	77.3
[5], log10 compound concentration (M): -8.33985, supplement / serum: Hypoxanthine	–	93.9
[5], log10 compound concentration (M): -8.33985, supplement / serum: Hypoxanthine+Sodium Formate	–	101
[5], log10 compound concentration (M): -8.33985, supplement / serum: No metabolite	–	90
[5], log10 compound concentration (M): -8.33985, supplement / serum: Sodium Formate	–	92.2
[5], log10 compound concentration (M): -8.33985, supplement / serum: Vehicle	–	92.8
[5], log10 compound concentration (M): -8.81697, supplement / serum: 50μM Hypoxanthine	–	114
[5], log10 compound concentration (M): -8.81697, supplement / serum: 50μM Thymidine + 50μM Hypoxanthine	–	113
[5], log10 compound concentration (M): -8.81697, supplement / serum: 50μMThymidine	–	94
[5], log10 compound concentration (M): -8.81697, supplement / serum: Hypoxanthine	–	94.5
[5], log10 compound concentration (M): -8.81697, supplement / serum: Hypoxanthine+Sodium Formate	–	95.1
[5], log10 compound concentration (M): -8.81697, supplement / serum: No metabolite	–	96.4
[5], log10 compound concentration (M): -8.81697, supplement / serum: Sodium Formate	–	95.3
[5], log10 compound concentration (M): -8.81697, supplement / serum: Vehicle	–	94.3
[5], log10 compound concentration (M): -9.29409, supplement / serum: 50μM Hypoxanthine	–	96.5
[5], log10 compound concentration (M): -9.29409, supplement / serum: 50μM Thymidine + 50μM Hypoxanthine	–	113
[5], log10 compound concentration (M): -9.29409, supplement / serum: 50μMThymidine	–	95.6
[5], log10 compound concentration (M): -9.29409, supplement / serum: Hypoxanthine	–	95.9
[5], log10 compound concentration (M): -9.29409, supplement / serum: Hypoxanthine+Sodium Formate	–	94.7
[5], log10 compound concentration (M): -9.29409, supplement / serum: No metabolite	–	104
[5], log10 compound concentration (M): -9.29409, supplement / serum: Sodium Formate	–	98.8
[5], log10 compound concentration (M): -9.29409, supplement / serum: Vehicle	–	97
[5], log10 compound concentration (M): -9.77121, supplement / serum: 50μM Hypoxanthine	–	106
[5], log10 compound concentration (M): -9.77121, supplement / serum: 50μM Thymidine + 50μM Hypoxanthine	–	124
[5], log10 compound concentration (M): -9.77121, supplement / serum: 50μMThymidine	–	92.7
[5], log10 compound concentration (M): -9.77121, supplement / serum: Hypoxanthine	–	95
[5], log10 compound concentration (M): -9.77121, supplement / serum: Hypoxanthine+Sodium Formate	–	98.8
[5], log10 compound concentration (M): -9.77121, supplement / serum: No metabolite	–	110
[5], log10 compound concentration (M): -9.77121, supplement / serum: Sodium Formate	–	99.3
[5], log10 compound concentration (M): -9.77121, supplement / serum: Vehicle	–	96.2

Conditions	EC50 for viability [µM]
[2]	> 10

[4]
Conditions	EC50 for viability [µM]
HPLM (5% dFBS, 1% P/S), metabolite supplement: Vehicle	> 10
RPMI+GlutaMAX (5% FBS, 1% P/S), metabolite supplement: Vehicle	> 10
RPMI+GlutaMAX (5% dFBS, 1% P/S), metabolite supplement: 50 µM Hypoxanthine	> 10
RPMI+GlutaMAX (5% dFBS, 1% P/S), metabolite supplement: Vehicle	0.553
RPMI+GlutaMAX (10% FBS, 1% P/S), metabolite supplement: Hypoxanthine	7.05
RPMI+GlutaMAX (10% FBS, 1% P/S), metabolite supplement: Sodium Formate	6.17
RPMI+GlutaMAX (10% FBS, 1% P/S), metabolite supplement: Thymidine	0.447
RPMI+GlutaMAX (10% FBS, 1% P/S), metabolite supplement: Thymidine + Hypoxanthine	> 10
RPMI+GlutaMAX (10% FBS, 1% P/S), metabolite supplement: Thymidine + Sodium Formate	> 10

— the supplement of paper PMC10132981, “Formate overflow drives toxic folate trapping in MTHFD1 inhibited cancer cells” (Nature Metabolism, 2023)
